Data set [1] is described as follows: Flotation of manganese ions with sequestering agent in a flotation cell, metal analysis of foam. The settings on record: 1 mg manganese as manganese sulphate, sequestering agent:metal 1.2:1, pH 5.5, flotation approx. 30 min. From the text:
In order to investigate the separability of a sequestering agent according to the invention a small flotation cell was used. This flotation cell has a volume of approximately 1.6 l, a height of 315 mm and an inner diameter of 80 mm. Compressed air used to form the foam is led through a porous sintered glass filter of diameter 60 mm with a nominal porosity of 10-16 μm (“porosity 4”) mounted at the bottom of the flotation cell. At the top of the flotation cell a cylinder of an inner diameter of 30 mm and a height of 415 mm, with an outlet placed at 72 mm from the bottom, is mounted. The outlet is used to collect the foam and thereby the chelate according to the invention. At the top of the latter cylinder an adjustable valve is mounted to be able to better control the foaming and to direct the foam to the outlet.
was prepared from 2-aminoethanol, tert-butyl bromoacetate and tert-butyl 2-aminotetradecanoate as main ingredients using conventional techniques and was therafter mixed in 500 ml deionised water with 1 mg of manganese in the form of manganese sulphate (in a molar ratio of 1.2:1=sequestering agent: manganese sulphate) and a flotation agent (N,N-dimethyldodecylamine N-oxide, in a molar ratio of 10:1=flotation agent:sequestering agent).
The pH-value of the solution was adjusted to pH 5.5 with 0.1 M sodium hydroxide solution or 0.1 M hydrogen chloride solution. […]

Data set [2] can be described thus: Flotation of copper ions with sequestering agent in a flotation cell, metal analysis of foam. The settings on record: 1 mg copper as copper sulphate, sequestering agent:metal 1.2:1, pH 5.5, flotation approx. 30 min.
A short description of data set [3]: Precipitation/recovery from a copper(II) sulfate solution by electrolysis, then acidification (Experimental Example 6). To be noted: electrolysis pH 12, 50 min, 300-350 mA. On the procedure: The recovery of 2-dodecyl-3-carboxymethyl-3-azapentane diacid was performed in a two-step procedure.
In the first stage metal ions was removed from the solution by electrolysis at a specified pH and current intensity: The equipment to perform the electrolysis consisted of a Manson EP-601 rectifier and two platinum electrodes in form of a spring (anode) and a basket (cathode).
To a solution of 2-dodecyl-3-carboxymethyl-3-azapentane diacid and copper in the form of copper(II) sulfate (30 ml, in a molar ratio of 1.2:1=sequestering agent: copper(II) sulfate, [sequestrent]=10.5 mM, [Cu^2+]=655 ppm) in a beaker was sodium sulphate (corresponding to 50 mg/l) added, in order to receive wished current intensity. Solutions of 1 M aqueous sodium hydroxide was added to adjust the pH to 12. The total volume of the solution was 150 ml. The electrolysis was performed during 50 min. at a current intensity of 300-350 mA.
In the second step the electrolysis solution was acidified with 1 M aqueous hydrogen chloride to pH=2.4. The precipitated material was removed by filtration (glass filter—Schott u.Gen Mainz 1G2) and dried in a vacuum chamber at 0.8 mbar for 24 hours.
99.6 mg precipitate was obtained. Organic analyses were made with the aid of an ESI-MS (recorded on a Micromass Quattro II mass spectrometer coupled with a Harvard Apparatus Pump 11 syringe pump directly into the ESI source of the mass spectrometer at a flow rate of 6 μl/min. The data was processed using MassLynx 4.0 software) in positive and negative mode, and NMR with a Varian 500 instrument. The precipitate contained exclusively of 2-dodecyl-3-carboxymethyl-3-azapentane diacid.
Metal analyses were made with the aid of a Perkin-Elmer AA300 atomic absorption spectrometer.

Data set [4] is described as follows: Precipitation/recovery of sequestering agent from a copper(II) chloride solution by acidification to pH 1.8. The settings on record: acidified to pH=1.8, 5.66 mM sequestrent, 300 ppm copper. On the procedure:
A stock solution of 4-dodecyl-3,6,9-tri(carboxymethyl)-3,6,9-triazaundecane diacid and copper in the form of copper(II) chloride (20 ml, in a molar ratio of 1.2:1=sequestering agent: copper(II) chloride, [Cu^2+]=900 ppm, pH=4.5) was diluted with milliQ-water to a total volume of 60 ml in a beaker, corresponding to a solution with an initial sequestrent- and copper concentration of 5.66 mM and 300 ppm, respectively. To this solution 2 M aqueous hydrogen chloride was added under magnetical stirring at room temperature to pH=1.8. A light blue precipitate was removed by filtration (P3 glass filter) leaving a colourless transparent filtrate. The light blue precipitate was dried in a vacuum chamber at 0.8 mbar for 19 hours resulting in a light blue solid.
270 mg precipitate was obtained. Organic analyses were made with the aid of an ESI-MS (recorded on a Micromass Quattro II mass spectrometer coupled with a Harvard Apparatus Pump 11 syringe pump directly into the ESI source of the mass spectrometer at a flow rate of 6 μl/min. The data was processed using MassLynx 4.0 software) in positive and negative mode.
The precipitate contained exclusively of 4-dodecyl-3,6,9-tri(carboxymethyl)-3,6,9-triazaundecane diacid and complexed sequestering agent. […] Metal analyses were made with the aid of a Perkin-Elmer AA300 atomic absorption spectrometer. […]

Data set [5] can be described thus: Precipitation/recovery from a copper(II) chloride solution by electrolysis with cation exchange membrane, then acidification (Experimental Example 7). To be noted: electrolysis starting pH 4.1, 60 min, 250-300 mA. Here is the method: The recovery of 4-dodecyl-3,6,9-tri(carboxymethyl)-3,6,9-triazaundecane diacid was performed in a two-step procedure.
In the first stage metal ions was removed from the solution by electrolysis at a specified pH and current intensity. The equipment to perform the electrolysis consisted of a Manson EP-60.1 rectifier and two platinum electrodes in form of a spring (anode) and a basket (cathode). The electrodes were separated with a cationic exchange membrane (CMI-7000 Cation exchange membranes—Membranes International INC.)
To a solution of 4-dodecyl-3,6,9-tri(carboxymethyl)-3,6,9-triazaundecane diacid and copper in the form of copper(II) chloride (30 ml, in a molar ratio of 1.2:1=sequestering agent: copper(II) chloride, [Cu^2+]=900 ppm, pH=4.5) in a beaker was sodium sulphate (corresponding to 0.1 M), in order to receive wished current intensity. The pH of the starting solution was 4.1. The total volume of the solution was 300 ml. The electrolysis was performed during 60 min. at a current intensity of 250-300 mA.
In the second step the electrolysis solution was acidified with 1 M aqueous hydrogen chloride to pH=2.4. The precipitated material was removed by filtration (glass filter—Schott u.Gen Mainz 1G2) and dried in a vacuum chamber at 0.8 mbar for 22 hours.
198.7 mg precipitate was obtained. Organic analyses were made with the aid of an ESI-MS (recorded on a Micromass Quattro II mass spectrometer coupled with a Harvard Apparatus Pump 11 syringe pump directly into the ESI source of the mass spectrometer at a flow rate of 6 μL/min. The data was processed using MassLynx 4.0 software) in positive and negative mode, and NMR with a Varian 500 instrument. The precipitate contained exclusively of 4-dodecyl-3,6,9-tri(carboxymethyl)-3,6,9-triazaundecane diacid. Metal analyses were made with the aid of a Perkin-Elmer AA300 atomic absorption spectrometer.

Data set [6] in a line: Solubility of sequestering agent in a copper(II) chloride solution on stepwise acidification. To be noted: 5.66 mM sequestrent, 300 ppm copper, room temperature. The data set is classed as physicochemical. Here is the method: A stock solution of 4-dodecyl-3,6,9-tri(carboxymethyl)-3,6,9-triazaundecane diacid and copper in the form of copper(II) chloride (20 ml, in a molar ratio of 1.2:1=sequestering agent: copper(II) chloride, [Cu^2+]=900 ppm, pH=4.5) was diluted with milliQ-water to a total volume of 60 ml in a beaker, corresponding to a solution with an initial sequestrent and copper concentration of 5.66 mM and 300 ppm, respectively. To this solution 2 M aqueous hydrogen chloride was added stepwise, under magnetical stirring at room temperature, to follow the solubility behavior of 4-dodecyl-3,6,9-tri(carboxymethyl)-3,6,9-triazaundecane diacid.

`CCCCCCCCCCCCC(C(=O)O)N(CCN(CC(=O)O)CC(=O)O)CC(=O)O` (stereo not drawn) [2-dodecyl-3,6-di(carboxymethyl)-3,6-diazaoctane diacid]: the “added manganese found in the foam” value in data set [1] was “About 35%”. For the same molecule, the “added copper found in the foam” value in data set [2] was roughly 65%.
As for `CCCCCCCCCCCCC(C(=O)O)N(CC(=O)O)CC(=O)O` (stereo not drawn) [2-dodecyl-3-carboxymethyl-3-azapentane diacid], in data set [3], the “copper found on the cathode” value turned out to be 99.4%. For the same molecule, in data set [3] (then acidified to pH=2.4), the “copper found in the filtrate” value is 0.1% and the “copper found in the precipitate” value came out at 0.5%. For the same molecule, the “added manganese found in the foam” value in data set [1] is on record as “About 10%”. Further, the “added copper found in the foam” value in data set [2] is given as roughly 70%.
For `CCCCCCCCCCCCC(CN(CCN(CC(=O)O)CC(=O)O)CC(=O)O)N(CC(=O)O)CC(=O)O` (stereo not drawn) [4-dodecyl-3,6,9-tri(carboxymethyl)-3,6,9-triazaundecane diacid], the “copper found in the filtrate” value in data set [4] was 1%; in data set [5] (then acidified to pH=2.4), 0.1%. For the same molecule, the figures for the “copper found in the precipitate” value in data set [4] and in data set [5] (then acidified to pH=2.4) were 99% and 0.1%, respectively. Moreover, in data set [5], the “copper found on the cathode” value is given as 99.8%. Moreover, the solubility observation entry is reported as “A clear blue aqueous solution” in data set [6] (pH<0.5), “Precipitated material is observed” in data set [6] (pH=2.8-0.5) and “A clear blue aqueous solution” in data set [6] (pH=4.5-2.8).

The values above are taken from US20120318750A1, “METHODS AND COMPOSITIONS FOR COMPLEX BINDING OF METAL IONS” (ChemseQ International AB, priority 2009, published 2012).
